Data published in ChEMBL document CHEMBL4507276 (2021).

Key:
[1] = biological target: Tyrosine-protein kinase Srms (Homo sapiens) (UniProt Q9H3Y6); conditions: Compound concentration 1000.0 nM
[2] = biological target: Death-associated protein kinase 2 (Homo sapiens) (UniProt Q9UIK4); conditions: Compound concentration 1000.0 nM
[3] = biological target: T1, Activin receptor type-1B (Homo sapiens) (UniProt P36896); conditions: Compound concentration 1000.0 nM
T1 sequence (whole entry): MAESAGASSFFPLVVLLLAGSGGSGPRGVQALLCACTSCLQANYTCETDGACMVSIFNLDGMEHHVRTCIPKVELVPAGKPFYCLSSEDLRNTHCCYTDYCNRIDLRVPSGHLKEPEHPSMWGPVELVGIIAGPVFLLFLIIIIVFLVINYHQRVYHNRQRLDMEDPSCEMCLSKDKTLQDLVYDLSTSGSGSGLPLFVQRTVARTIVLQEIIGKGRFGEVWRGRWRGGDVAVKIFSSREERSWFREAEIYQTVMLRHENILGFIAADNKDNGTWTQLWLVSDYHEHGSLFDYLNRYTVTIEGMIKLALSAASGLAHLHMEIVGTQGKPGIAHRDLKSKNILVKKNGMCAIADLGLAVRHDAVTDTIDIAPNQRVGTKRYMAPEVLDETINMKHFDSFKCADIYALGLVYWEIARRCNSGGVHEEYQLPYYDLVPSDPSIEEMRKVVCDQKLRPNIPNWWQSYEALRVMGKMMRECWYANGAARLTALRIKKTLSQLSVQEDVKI

[4] = biological target: Serine/threonine-protein kinase 35 (Homo sapiens) (UniProt Q8TDR2); conditions: Compound concentration 1000.0 nM
[5] = biological target: Cyclin-dependent kinase 9 (Homo sapiens) (UniProt P50750); conditions: Compound concentration 1000.0 nM
[6] = biological target: Uncharacterized serine/threonine-protein kinase SBK3 (Homo sapiens) (UniProt P0C264); conditions: Compound concentration 1000.0 nM
[7] = biological target: Ribosomal protein S6 kinase alpha-3 (Homo sapiens) (UniProt P51812); conditions: Compound concentration 1000.0 nM
[8] = biological target: Sodium-dependent dopamine transporter (Homo sapiens, UniProt Q01959); conditions: Compound concentration 10.0 uM
[9] = biological target: Fibroblast growth factor receptor 2 (Homo sapiens) (UniProt P21802); conditions: Compound concentration 1000.0 nM
[10] = test system: Tyrosine-protein kinase ABL1 (Homo sapiens), P00519 [T315I]; conditions: Compound concentration 1000.0 nM
[11] = test system: Receptor-type tyrosine-protein kinase FLT3 (Homo sapiens), P36888 [D835V]; conditions: Compound concentration 1000.0 nM
[12] = biological target: Ribosomal protein S6 kinase alpha-3 (Homo sapiens) (UniProt P51812); conditions: Compound concentration 1000.0 nM; remark: listed apart in the source
[13] = biological target: T2, Serine/threonine-protein kinase BRSK1 (Homo sapiens) (UniProt Q8TDC3); conditions: Compound concentration 1000.0 nM
T2 sequence (whole entry): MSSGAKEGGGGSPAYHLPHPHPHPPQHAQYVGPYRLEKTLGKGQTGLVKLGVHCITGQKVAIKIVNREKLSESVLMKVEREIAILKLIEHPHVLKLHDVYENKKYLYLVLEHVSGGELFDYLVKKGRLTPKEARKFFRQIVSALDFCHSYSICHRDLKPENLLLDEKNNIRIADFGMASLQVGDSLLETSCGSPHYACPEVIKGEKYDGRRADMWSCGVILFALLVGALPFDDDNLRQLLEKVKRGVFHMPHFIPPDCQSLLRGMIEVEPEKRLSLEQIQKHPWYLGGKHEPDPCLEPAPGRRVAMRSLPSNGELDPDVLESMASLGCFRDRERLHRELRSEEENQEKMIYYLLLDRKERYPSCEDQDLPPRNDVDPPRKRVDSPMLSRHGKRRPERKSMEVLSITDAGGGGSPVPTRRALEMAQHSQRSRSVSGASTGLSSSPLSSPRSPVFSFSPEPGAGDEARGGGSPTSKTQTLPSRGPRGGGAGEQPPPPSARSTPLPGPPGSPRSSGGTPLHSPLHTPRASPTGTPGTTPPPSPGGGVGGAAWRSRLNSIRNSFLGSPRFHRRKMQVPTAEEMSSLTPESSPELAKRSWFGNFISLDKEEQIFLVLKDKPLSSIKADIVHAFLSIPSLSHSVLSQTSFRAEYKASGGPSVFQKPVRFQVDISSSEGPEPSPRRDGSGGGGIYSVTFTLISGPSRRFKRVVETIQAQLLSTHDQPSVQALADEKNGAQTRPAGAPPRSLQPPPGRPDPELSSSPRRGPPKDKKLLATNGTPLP

[14] = biological target: Serine/threonine-protein kinase N1 (Homo sapiens) (UniProt Q16512); conditions: Compound concentration 1000.0 nM
[15] = biological target: T3, Discoidin domain-containing receptor 2 (Homo sapiens) (UniProt Q16832); conditions: Compound concentration 1000.0 nM
T3 sequence (whole entry): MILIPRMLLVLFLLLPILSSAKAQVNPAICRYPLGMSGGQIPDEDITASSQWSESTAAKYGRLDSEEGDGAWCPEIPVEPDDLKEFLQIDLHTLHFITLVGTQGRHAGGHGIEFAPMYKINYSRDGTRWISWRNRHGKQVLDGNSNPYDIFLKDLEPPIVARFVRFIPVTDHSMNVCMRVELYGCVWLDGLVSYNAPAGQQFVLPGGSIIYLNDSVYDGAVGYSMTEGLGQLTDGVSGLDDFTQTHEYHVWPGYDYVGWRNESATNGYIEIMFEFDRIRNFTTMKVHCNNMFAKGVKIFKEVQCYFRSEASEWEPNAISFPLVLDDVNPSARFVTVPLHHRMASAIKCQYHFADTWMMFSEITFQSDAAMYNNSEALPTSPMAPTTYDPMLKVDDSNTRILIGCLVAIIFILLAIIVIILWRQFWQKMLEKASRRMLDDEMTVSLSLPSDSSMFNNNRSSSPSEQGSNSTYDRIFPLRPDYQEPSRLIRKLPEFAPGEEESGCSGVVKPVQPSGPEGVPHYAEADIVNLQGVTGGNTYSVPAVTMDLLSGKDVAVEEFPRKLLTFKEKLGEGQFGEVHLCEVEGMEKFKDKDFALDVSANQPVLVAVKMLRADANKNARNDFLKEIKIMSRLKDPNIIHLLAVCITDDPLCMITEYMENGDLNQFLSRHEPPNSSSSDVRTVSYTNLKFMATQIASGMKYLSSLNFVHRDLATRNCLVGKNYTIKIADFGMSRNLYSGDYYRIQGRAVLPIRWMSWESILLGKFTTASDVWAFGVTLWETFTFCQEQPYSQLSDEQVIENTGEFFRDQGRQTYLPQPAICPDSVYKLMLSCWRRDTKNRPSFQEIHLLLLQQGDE

[16] = biological target: Dual specificity protein kinase CLK4 (Homo sapiens) (UniProt Q9HAZ1); conditions: Compound concentration 1000.0 nM
Sequence of Dual specificity protein kinase CLK4 (Homo sapiens) (Q9HAZ1 whole entry, looked up): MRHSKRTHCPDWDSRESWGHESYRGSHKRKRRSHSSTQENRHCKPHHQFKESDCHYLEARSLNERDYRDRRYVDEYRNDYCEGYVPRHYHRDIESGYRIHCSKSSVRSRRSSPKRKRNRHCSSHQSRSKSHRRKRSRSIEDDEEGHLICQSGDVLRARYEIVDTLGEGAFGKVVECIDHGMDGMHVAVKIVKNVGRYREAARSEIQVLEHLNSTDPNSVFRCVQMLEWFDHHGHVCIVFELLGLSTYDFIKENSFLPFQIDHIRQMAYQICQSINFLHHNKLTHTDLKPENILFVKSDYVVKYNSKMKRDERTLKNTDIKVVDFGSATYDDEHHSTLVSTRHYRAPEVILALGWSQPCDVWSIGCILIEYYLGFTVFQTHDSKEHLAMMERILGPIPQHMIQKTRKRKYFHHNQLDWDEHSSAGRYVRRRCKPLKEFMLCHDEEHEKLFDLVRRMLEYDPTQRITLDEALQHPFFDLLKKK

Sequence of Ribosomal protein S6 kinase alpha-3 (Homo sapiens) (P51812 whole entry): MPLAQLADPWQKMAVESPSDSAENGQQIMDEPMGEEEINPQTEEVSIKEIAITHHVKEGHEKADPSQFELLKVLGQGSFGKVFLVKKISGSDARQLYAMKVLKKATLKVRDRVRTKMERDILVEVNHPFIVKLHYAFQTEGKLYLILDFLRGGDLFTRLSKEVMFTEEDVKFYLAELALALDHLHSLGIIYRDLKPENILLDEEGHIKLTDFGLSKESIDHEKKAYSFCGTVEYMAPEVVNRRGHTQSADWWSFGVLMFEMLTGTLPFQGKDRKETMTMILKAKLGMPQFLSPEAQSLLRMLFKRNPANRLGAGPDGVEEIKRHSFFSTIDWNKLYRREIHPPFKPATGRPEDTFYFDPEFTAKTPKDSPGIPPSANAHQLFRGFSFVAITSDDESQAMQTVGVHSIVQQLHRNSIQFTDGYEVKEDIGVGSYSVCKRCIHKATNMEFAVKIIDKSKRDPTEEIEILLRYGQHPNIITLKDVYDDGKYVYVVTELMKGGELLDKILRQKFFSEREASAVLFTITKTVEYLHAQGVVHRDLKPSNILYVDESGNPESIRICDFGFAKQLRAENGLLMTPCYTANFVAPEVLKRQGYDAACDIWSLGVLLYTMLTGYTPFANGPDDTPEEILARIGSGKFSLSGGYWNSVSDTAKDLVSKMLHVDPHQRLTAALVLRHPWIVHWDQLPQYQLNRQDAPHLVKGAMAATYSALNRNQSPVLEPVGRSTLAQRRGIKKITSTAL
Sequence of Serine/threonine-protein kinase 35 (Homo sapiens) (Q8TDR2 whole entry): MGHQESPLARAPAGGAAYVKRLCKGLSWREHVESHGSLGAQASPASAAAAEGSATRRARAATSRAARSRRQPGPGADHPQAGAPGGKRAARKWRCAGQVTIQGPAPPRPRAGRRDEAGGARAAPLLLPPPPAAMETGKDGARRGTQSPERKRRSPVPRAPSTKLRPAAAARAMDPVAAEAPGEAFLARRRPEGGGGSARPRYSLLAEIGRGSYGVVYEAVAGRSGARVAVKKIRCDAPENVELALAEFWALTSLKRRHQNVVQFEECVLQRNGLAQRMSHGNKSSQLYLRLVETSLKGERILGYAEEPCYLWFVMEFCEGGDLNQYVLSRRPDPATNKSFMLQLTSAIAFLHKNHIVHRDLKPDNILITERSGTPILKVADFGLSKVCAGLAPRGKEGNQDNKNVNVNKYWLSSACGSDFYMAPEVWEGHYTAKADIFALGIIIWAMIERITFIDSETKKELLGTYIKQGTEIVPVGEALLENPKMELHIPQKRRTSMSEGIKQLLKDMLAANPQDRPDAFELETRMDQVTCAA
Sequence of Tyrosine-protein kinase Srms (Homo sapiens) (Q9H3Y6 whole entry): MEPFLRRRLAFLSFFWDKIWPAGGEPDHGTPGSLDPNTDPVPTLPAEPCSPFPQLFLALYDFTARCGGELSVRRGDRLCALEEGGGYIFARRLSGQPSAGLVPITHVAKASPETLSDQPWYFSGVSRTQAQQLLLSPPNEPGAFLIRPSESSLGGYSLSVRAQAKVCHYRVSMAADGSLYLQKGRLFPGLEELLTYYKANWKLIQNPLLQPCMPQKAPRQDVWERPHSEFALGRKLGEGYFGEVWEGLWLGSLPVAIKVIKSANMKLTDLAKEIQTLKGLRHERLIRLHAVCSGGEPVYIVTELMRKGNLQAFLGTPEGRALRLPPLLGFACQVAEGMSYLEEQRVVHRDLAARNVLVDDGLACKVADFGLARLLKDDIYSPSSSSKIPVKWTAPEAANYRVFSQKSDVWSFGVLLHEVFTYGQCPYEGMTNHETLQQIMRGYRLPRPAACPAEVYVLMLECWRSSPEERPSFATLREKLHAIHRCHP
Sequence of Cyclin-dependent kinase 9 (Homo sapiens) (P50750 whole entry): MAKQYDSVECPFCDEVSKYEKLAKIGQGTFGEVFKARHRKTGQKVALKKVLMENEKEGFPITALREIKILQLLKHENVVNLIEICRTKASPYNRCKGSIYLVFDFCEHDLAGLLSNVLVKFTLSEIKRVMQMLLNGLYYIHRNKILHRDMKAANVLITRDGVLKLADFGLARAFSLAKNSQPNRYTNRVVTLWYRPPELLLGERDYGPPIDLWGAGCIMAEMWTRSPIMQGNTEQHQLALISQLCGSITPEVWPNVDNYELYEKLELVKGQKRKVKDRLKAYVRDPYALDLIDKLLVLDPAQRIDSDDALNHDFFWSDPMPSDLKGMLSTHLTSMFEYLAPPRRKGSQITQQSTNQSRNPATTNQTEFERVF
Sequence of Sodium-dependent dopamine transporter (Q01959 whole entry): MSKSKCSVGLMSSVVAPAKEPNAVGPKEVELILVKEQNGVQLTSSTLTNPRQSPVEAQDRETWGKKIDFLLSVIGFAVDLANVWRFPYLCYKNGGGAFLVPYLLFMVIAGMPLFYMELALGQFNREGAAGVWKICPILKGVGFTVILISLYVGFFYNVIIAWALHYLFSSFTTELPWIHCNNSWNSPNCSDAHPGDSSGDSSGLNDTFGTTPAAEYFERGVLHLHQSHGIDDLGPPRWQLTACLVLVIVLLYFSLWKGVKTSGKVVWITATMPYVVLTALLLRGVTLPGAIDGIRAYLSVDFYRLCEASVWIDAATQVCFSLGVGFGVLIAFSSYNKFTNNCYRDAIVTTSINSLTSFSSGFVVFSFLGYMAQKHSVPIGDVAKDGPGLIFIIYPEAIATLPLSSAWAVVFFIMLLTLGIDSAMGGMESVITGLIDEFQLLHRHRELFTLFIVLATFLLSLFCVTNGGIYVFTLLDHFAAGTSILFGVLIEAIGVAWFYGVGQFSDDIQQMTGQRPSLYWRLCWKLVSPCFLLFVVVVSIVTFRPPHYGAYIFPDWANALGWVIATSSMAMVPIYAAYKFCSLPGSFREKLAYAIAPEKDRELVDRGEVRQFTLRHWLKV
Sequence of Fibroblast growth factor receptor 2 (Homo sapiens) (P21802 22-821 limits assumed): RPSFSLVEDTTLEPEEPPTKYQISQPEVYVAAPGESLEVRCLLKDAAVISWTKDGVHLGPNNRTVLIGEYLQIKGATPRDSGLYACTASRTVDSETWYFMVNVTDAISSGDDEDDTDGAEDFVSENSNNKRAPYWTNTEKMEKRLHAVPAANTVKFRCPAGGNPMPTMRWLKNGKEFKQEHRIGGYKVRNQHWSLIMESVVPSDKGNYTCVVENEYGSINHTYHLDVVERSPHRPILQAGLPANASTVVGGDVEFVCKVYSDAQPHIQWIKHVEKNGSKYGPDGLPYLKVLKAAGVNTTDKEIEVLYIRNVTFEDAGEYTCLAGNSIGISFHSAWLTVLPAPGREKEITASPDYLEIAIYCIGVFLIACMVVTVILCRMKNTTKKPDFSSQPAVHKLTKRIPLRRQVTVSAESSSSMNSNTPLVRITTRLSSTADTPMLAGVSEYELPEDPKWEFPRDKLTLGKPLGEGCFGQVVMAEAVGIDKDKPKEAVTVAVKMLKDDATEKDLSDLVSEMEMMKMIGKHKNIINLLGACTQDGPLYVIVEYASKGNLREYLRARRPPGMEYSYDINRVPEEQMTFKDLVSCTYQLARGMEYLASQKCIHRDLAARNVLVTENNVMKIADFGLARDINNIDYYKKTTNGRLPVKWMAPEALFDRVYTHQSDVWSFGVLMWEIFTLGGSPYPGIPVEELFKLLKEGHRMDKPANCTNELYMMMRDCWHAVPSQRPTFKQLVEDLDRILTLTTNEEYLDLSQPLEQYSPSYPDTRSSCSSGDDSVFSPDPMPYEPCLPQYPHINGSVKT
Sequence of Uncharacterized serine/threonine-protein kinase SBK3 (Homo sapiens) (P0C264 whole entry): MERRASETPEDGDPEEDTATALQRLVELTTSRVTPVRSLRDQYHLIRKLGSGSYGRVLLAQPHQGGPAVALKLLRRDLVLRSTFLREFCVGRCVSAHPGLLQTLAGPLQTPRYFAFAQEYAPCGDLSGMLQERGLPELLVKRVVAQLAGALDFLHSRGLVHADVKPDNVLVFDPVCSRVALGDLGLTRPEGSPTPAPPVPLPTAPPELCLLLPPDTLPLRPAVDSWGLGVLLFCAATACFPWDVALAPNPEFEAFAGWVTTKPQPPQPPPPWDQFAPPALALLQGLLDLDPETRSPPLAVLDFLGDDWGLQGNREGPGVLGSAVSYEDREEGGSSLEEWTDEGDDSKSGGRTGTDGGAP
Sequence of Death-associated protein kinase 2 (Homo sapiens) (Q9UIK4 whole entry, looked up): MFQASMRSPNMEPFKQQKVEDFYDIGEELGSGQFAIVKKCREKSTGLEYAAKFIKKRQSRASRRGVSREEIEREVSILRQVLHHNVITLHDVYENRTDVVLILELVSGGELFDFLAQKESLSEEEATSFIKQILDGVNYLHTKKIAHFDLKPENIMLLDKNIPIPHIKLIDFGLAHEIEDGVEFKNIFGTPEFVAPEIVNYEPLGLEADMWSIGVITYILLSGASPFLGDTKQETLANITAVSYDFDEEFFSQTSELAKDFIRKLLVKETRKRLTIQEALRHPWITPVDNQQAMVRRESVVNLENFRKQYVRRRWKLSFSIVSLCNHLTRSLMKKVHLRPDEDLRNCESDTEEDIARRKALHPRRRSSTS

Structure (SMILES)	residual activity [1] [%]	residual activity [2] [%]	residual activity [3] [%]	residual activity [4] [%]	residual activity [5] [%]	residual activity [6] [%]	residual activity [7] [%]	inhibition [8] [%]	residual activity [9] [%]	residual activity [10] [%]	residual activity [11] [%]	residual activity [12] [%]	residual activity [13] [%]	residual activity [14] [%]	residual activity [15] [%]	residual activity [16] [%]
CN(C)C(=O)Cn1cc(-c2nc(C3(c4ccc(-c5cnc(N)nc5)cc4)CC3)no2)cn1 [BI 0153]	73	86	84	94	100	99	92	52.4	100	100	49	85	93	84	100	89
CN(C)C(=O)Cn1cc(-c2nc([C@@](C)(c3ccc(-c4cnc(N)nc4)cc3)C3CC3)no2)cn1 [BI 665915]	93	100	89	88	96	71	83	60.7	85	90	72	100	98	99	89	99
